Experimental data: PMC8962522, “Direct interaction of TrkA/CD44v3 is essential for NGF-promoted aggressiveness of breast cancer cells” (Journal of Experimental & Clinical Cancer Research : CR, 2022)

How the values were obtained:
Assay type in all cases: cell-based
[1] = tested on: SUM-159-PT cells; test: Scratch/wound migration assay, SUM-159-PT; details: 24 h after treatment; Supplementary Fig. 9 C & D; effects as in MDA-MB-231 (inhibition of NGF-induced migration)
[2] = tested on: MDA-MB-231 cells; test: Clonogenicity assay, MDA-MB-231; details: peptide 50 ng/mL, 2% FBS; versus control cells or scramble peptide; siCD44v3: 10 days after siRNA transfection
Description: The clonogenicity assay was performed to assess cell survival. MDA-MB-231 cells (250 cells/mL) were seeded into 6 plate wells (2% FBS medium; 2 mL/well). When the cells attached (within 3 h), they were treated with the peptide (scramble or P4; 50 ng/mL) or no peptide (control) and incubated for 24 h. The next day, a second-round treatment was performed. Three days later, the medium was changed, and the cells were incubated for another 5 days. After 10 days of culture, the medium was removed, and the cells were washed twice (PBS 1×), fixed (4% PAF for 30 min at RT), colored (violet crystal 2%; 30 min; RT) and washed twice (distilled water). Representative pictures of one well were taken, and the colonies were counted.
Therefore, in this study, we assessed TrkA binding to CD44v3 in MDA-MB-231 cells, which were used as TNBC model cells. […] Therefore, we evaluated the physiological consequences of TrkA/CD44v3 complex dissociation induced by CD44v3 mimetic peptide 4 on MDA-MB-231 cell phenotypes (Fig. 4). […] We first determined the effect of CD44v3 on the length-to-width (l/w) ratio of the cells (elongation factor) (Fig. 4C-E). […]
Fig. 4 CD44v3 mimetic peptide 4 inhibits MDA-MB-231 breast cancer cell growth and migration/invasion. Clonogenic MDA-MB-231 cell growth was measured after 10 days in the presence of a scramble peptide (SP) or CD44v3 mimetic peptide (P4) (A, B). […]

[3] = tested on: TrkA/CD44v3 complex in HCC-1954 cells; test: PLA TrkA/CD44v3 complex formation in HCC-1954 cells; details: Her2-like; NGF 100 ng/ml
Description: Cells (10,000 cells per well) were grown on acid-washed eight-well glass slides (Thermo Scientific) in the appropriate medium supplemented with 10% FBS for 24 h. After NGF treatment, paraformaldehyde (PAF)-fixed cells were incubated with 4% bovine serum albumin (BSA) or 5% FBS (for 1 h at 20 °C), followed by overnight incubation with primary antibodies (rabbit anti-TrkA or rabbit anti-IgG + mouse anti-pan-CD44; mouse anti-CD44v3; mouse anti-CD44v6; mouse anti-IgG2a; mouse anti-IgG2b; or mouse anti-IgG1). PLA was performed following the manufacturer’s instructions in the assay kit (Duolink PLA; Sigma–Aldrich). To obtain the correct representation of the PLA signal for each condition, 30 fields per condition were observed using a fluorescence microscope (Eclipse TiU; Nikon, Japan). The PLA signals (red dots) were automatically quantified using ImageJ software (with an in-house-developed plug-in). […]
Fig. 7 The TrkA/CD44v3 complex is formed in PR-negative breast cancer cells and tumors. TrkA/CD44v3 complex formation was measured in SUM159-PT (triple negative—i.e., ERα-, PR-, and Her2-) cells (A), T47-D (luminal A—i.e., ERα+, PR+, and Her2-) cells (B), BT-474 (luminal B—ERα+, PR+, and Her2+) cells (C), HCC-1954 (Her2-like—ERα-, PR-, and Her2+) cells (D), and 150 tumor patient samples obtained from US BioMax (HBre-Duc150Sur01) (E, F) using the proximity ligation assay (PLA). […]

| Substance | effect on migration of SUM-159-PT cells [1] | effect on clonogenic growth of MDA-MB-231 cells [2] | effect on TrkA/CD44v3 complex formation (PLA) in HCC-1954 cells [3] |
| --- | --- | --- | --- |
| IDDDEDFISST [Peptide 4, mimetic peptide 4 (…) corresponding to the C-terminal region of CD44v3] | We also confirmed the effects of CD44v3 mimetic peptide 4 on migration in SUM-159-PT cells | reduced the proportion of MDA-MB-231 colony forming units by two-thirds |  |
| NGF: recombinant human β-NGF (Alomone Labs, Israel) |  |  | NGF induction of CD44v3/TrkA complex formation was observed in SUM-159PT (TN) and HCC-1954 (Her2) cells |
